Measurements from patent publication US20140315933A1, “CHEMICAL COMPOUNDS” (Pfizer Limited, priority 2013, published 2014).
Where a name gives a salt, the structure may show the parent alone.

target: T1, URAT-1 transporter (Homo sapiens, UniProt Q96S37); test: URAT-1 inhibitor activity: [14C]-uric acid uptake into CHO-URAT1(L)GFP#8 (CHO#8) cells, scintillation proximity; type: cell-based
T1 construct: expressed in transfected cells
Outline: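 Scintillation proximity read-out of 30 nM (final) [14C]-uric acid uptake over three hours at room temperature in chloride-free HEPES buffer pH 7.4. Compounds, 0–10 μM final with 0.25% DMSO, were added 15 minutes before substrate; cells were a clonal CHO line with human URAT1(L)-eGFP, preincubated 1 hour in chloride buffer.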

T1 sequence (Q96S37 with tags, fused parts or gaps): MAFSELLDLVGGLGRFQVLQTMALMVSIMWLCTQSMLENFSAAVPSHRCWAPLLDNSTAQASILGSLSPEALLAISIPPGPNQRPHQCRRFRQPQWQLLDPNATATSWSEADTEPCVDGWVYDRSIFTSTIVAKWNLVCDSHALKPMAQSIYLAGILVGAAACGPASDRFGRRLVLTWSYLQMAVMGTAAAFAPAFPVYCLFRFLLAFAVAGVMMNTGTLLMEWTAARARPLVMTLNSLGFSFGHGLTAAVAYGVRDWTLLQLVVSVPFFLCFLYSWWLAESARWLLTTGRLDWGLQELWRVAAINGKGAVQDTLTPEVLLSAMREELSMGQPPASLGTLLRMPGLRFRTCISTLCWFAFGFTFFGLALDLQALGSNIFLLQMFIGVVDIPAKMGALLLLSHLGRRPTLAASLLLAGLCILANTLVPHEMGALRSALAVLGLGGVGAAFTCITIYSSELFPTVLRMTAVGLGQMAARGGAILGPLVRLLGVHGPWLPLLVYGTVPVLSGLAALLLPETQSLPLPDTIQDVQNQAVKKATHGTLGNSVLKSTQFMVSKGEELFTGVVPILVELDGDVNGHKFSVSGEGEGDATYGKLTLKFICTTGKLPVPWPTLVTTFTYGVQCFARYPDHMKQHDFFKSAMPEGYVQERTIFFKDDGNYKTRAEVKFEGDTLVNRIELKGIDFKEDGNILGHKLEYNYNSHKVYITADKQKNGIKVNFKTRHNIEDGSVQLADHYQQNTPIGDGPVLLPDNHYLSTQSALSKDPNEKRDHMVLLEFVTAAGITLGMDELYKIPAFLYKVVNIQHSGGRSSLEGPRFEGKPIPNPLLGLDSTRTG

Q: With `COc1ccc(Oc2ccc(S(=O)(=O)Nc3nccs3)cc2C#N)cn1` [compound 173] as the molecule, how does the IC50 read?
A: > 3660 nM

Q: How did the IC50 turn out when `O=S(=O)(Nc1cscn1)c1ccc(Oc2ccc(F)c(F)c2)cc1Cl` [compound 237] was run?
A: > 10000 nM

Q: Which IC50 does the source give for `N#Cc1cc(Oc2cc(F)c(S(=O)(=O)Nc3cscn3)cc2Cl)ccc1F` [compound 235] here?
A: > 10000 nM

Q: Which IC50 does the source give for `COc1cc(F)cc(Oc2ccc(S(=O)(=O)Nc3ncc(F)s3)cc2C#N)c1` [Example 122, 3-cyano-4-(3-fluoro-5-methoxyphenoxy)-N-(5-fluoro-1,3-thiazol-2-yl)benzenesulfonamide] here?
A: 581 nM

Q: Which IC50 does the source give for `CCNc1ccc(Oc2ccc(S(=O)(=O)Nc3nccs3)cc2C#N)cn1` [Example 189, 3-cyano-4-{[6-(ethylamino)pyridin-3-yl]oxy}-N-(1,3-thiazol-2-yl)benzenesulfonamide] here?
A: > 10000 nM

Q: With `N#Cc1ccc(Oc2ccc(S(=O)(=O)Nc3ncc(Cl)s3)cc2C#N)cc1Cl` [Example 247, 4-(3-chloro-4-cyanophenoxy)-N-(5-chloro-1,3-thiazol-2-yl)-3-cyanobenzenesulfonamide] as the molecule, how does the IC50 read?
A: 450 nM

Q: With `O=S(=O)(Nc1nccs1)c1ccc(Oc2ccccc2Br)c(F)c1` [Example 75, 4-(2-bromophenoxy)-3-fluoro-N-(1,3-thiazol-2-yl)benzenesulfonamide] as the molecule, how does the IC50 read?
A: > 10000 nM

Q: For `N#Cc1ccc(OC(F)F)c(Oc2ccc(S(=O)(=O)Nc3ncns3)cc2C#N)c1` [Example 24, 3-cyano-4-[5-cyano-2-(difluoromethoxy)phenoxy]-N-(1,2,4-thiadiazol-5-yl)benzenesulfonamide diethylamine salt], which IC50 is on record?
A: > 10000 nM

Q: For `CC(C)c1cccc(Oc2cc(F)c(S(=O)(=O)Nc3nccs3)cc2F)c1` [Example 67, 2,5-difluoro-4-[3-(propan-2-yl)phenoxy]-N-(1,3-thiazol-2-yl)benzenesulfonamide], which IC50 is on record?
A: > 7580 nM

Q: With `N#Cc1ccc(Oc2ccc(S(=O)(=O)Nc3nncs3)cc2Cl)cc1Cl` [compound 203] as the molecule, how does the IC50 read?
A: 387 nM

Q: For `N#Cc1cccc(Oc2ccc(S(=O)(=O)Nc3ncc(F)s3)cc2C#N)c1` [Example 132, 3-cyano-4-(3-cyanophenoxy)-N-(5-fluoro-1,3-thiazol-2-yl)benzenesulfonamide], which IC50 is on record?
A: 2600 nM

Q: With `CCOc1ccc(Oc2ccc(S(=O)(=O)Nc3nccs3)cc2C#N)cn1` [Example 191, 3-cyano-4-[(6-ethoxypyridin-3-yl)oxy]-N-(1,3-thiazol-2-yl)benzenesulfonamide] as the molecule, how does the IC50 read?
A: > 10000 nM

Q: `CC(C)c1cccc(Oc2ccc(S(=O)(=O)Nc3nccs3)cc2F)c1` [Example 66, 3-fluoro-4-[3-(propan-2-yl)phenoxy]-N-(1,3-thiazol-2-yl)benzenesulfonamide] was tested. Which IC50 did it give?
A: 5810 nM

Q: Which IC50 does the source give for `O=S(=O)(Nc1ncns1)c1cc(Cl)c(Oc2ccc(Cl)cc2OC(F)(F)F)cc1F` [Example 151, 5-chloro-4-[4-chloro-2-(trifluoromethoxy)phenoxy]-2-fluoro-N-(1,2,4-thiadiazol-5-yl)benzenesulfonamide] here?
A: 508 nM

Q: `CC(C)(F)COc1ncc(Oc2ccc(S(=O)(=O)Nc3nncs3)cc2C#N)cc1Cl` [Example 339] was tested. Which IC50 did it give?
A: > 10000 nM

Q: Which IC50 does the source give for `Cn1cc(NS(=O)(=O)c2ccc(Oc3ccc(C#N)c(Cl)c3)c(C#N)c2)cn1` [Example 58, 4-(3-chloro-4-cyanophenoxy)-3-cyano-N-(1-methyl-1H-pyrazol-4-yl)benzenesulfonamide] here?
A: > 10000 nM

Q: Which IC50 does the source give for `COc1cc(Cl)cc(Cl)c1Oc1ccc(S(=O)(=O)Nc2ncns2)cc1C#N` [Example 26, 3-cyano-4-(2,4-dichloro-6-methoxyphenoxy)-N-(1,2,4-thiadiazol-5-yl)benzenesulfonamide diethylamine salt] here?
A: 875 nM

Q: For `N#Cc1cc(S(=O)(=O)Nc2nccs2)ccc1Oc1cccc(Cl)c1C#N` [compound 180], which IC50 is on record?
A: 814 nM

Q: With `COc1cc(Cl)ccc1Oc1cc(F)c(S(=O)(=O)Nc2nncs2)cc1Cl` [Example 150, 5-chloro-4-(4-chloro-2-methoxyphenoxy)-2-fluoro-N-(1,3,4-thiadiazol-2-yl)benzenesulfonamide] as the molecule, how does the IC50 read?
A: 2510 nM

Q: How did the IC50 turn out when `N#Cc1cc(S(=O)(=O)Nc2ncns2)ccc1Oc1c(F)cccc1Cl` [compound 251] was run?
A: 1320 nM
